Experimental data taken from PubChem BioAssay (NCI).
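Dose response: 5 concentrations. Exposure: 48 h. Format: 96-well plates. Endpoint: linear interpolation; highest concentration if not reached. Definition used: TGI = concentration required for complete inhibition of growth.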

Legend:
Test in all cases: DTP human tumour cell line panel, 48 h
ACHN renal = tested on: ACHN renal
COLO 205 colon = tested on: COLO 205 colon
SF-539 CNS = tested on: SF-539 CNS
HCT-116 colon = tested on: HCT-116 colon
SK-MEL-2 melanoma = tested on: SK-MEL-2 melanoma
UACC-62 melanoma = tested on: UACC-62 melanoma
OVCAR-5 ovarian = tested on: OVCAR-5 ovarian
TK-10 renal = tested on: TK-10 renal
NCI-H460 lung = tested on: NCI-H460 lung
SN12C renal = tested on: SN12C renal
SNB-75 CNS = tested on: SNB-75 CNS
IGROV1 ovarian = tested on: IGROV1 ovarian
NCI-H522 lung = tested on: NCI-H522 lung
A498 renal = tested on: A498 renal
HOP-62 NSCLC = tested on: HOP-62 NSCLC
OVCAR-4 ovarian = tested on: OVCAR-4 ovarian
786-0 renal = tested on: 786-0 renal
MALME-3M melanoma = tested on: MALME-3M melanoma
OVCAR-8 ovarian = tested on: OVCAR-8 ovarian
BT-549 breast = tested on: BT-549 breast
HCT-15 colon = tested on: HCT-15 colon
HS 578T breast = tested on: HS 578T breast
SK-OV-3 ovarian = tested on: SK-OV-3 ovarian
SNB-19 CNS = tested on: SNB-19 CNS
OVCAR-3 ovarian = tested on: OVCAR-3 ovarian
UO-31 renal = tested on: UO-31 renal
NCI-H23 lung = tested on: NCI-H23 lung
UACC-257 melanoma = tested on: UACC-257 melanoma
KM12 colon = tested on: KM12 colon
RPMI-8226 leukemia = tested on: RPMI-8226 leukemia
SR leukemia = tested on: SR leukemia
SF-268 CNS = tested on: SF-268 CNS
CCRF-CEM leukemia = tested on: CCRF-CEM leukemia
MDA-MB-435 = tested on: MDA-MB-435
DU-145 prostate = tested on: DU-145 prostate
EKVX NSCLC = tested on: EKVX NSCLC
LOX IMVI melanoma = tested on: LOX IMVI melanoma
M14 melanoma = tested on: M14 melanoma
T-47D breast = tested on: T-47D breast
HL-60(TB) leukemia = tested on: HL-60(TB) leukemia
MCF7 breast = tested on: MCF7 breast
U251 CNS = tested on: U251 CNS
HCC-2998 colon = tested on: HCC-2998 colon
MOLT-4 leukemia = tested on: MOLT-4 leukemia
CAKI-1 renal = tested on: CAKI-1 renal
A549 NSCLC = tested on: A549 NSCLC
HOP-92 NSCLC = tested on: HOP-92 NSCLC
K-562 leukemia = tested on: K-562 leukemia
SW-620 colon = tested on: SW-620 colon
MDA-MB-231 breast = tested on: MDA-MB-231 breast
HT29 colon = tested on: HT29 colon
NCI-H226 lung = tested on: NCI-H226 lung
SK-MEL-5 melanoma = tested on: SK-MEL-5 melanoma
SF-295 CNS = tested on: SF-295 CNS
NCI/ADR-RES ovarian = tested on: NCI/ADR-RES ovarian
MDA-N = tested on: MDA-N
PC-3 prostate = tested on: PC-3 prostate
RXF 393 renal = tested on: RXF 393 renal
SK-MEL-28 melanoma = tested on: SK-MEL-28 melanoma

Measured: TGI

O=C(O)c1ccccc1/C=N\NC1=NCCN1
> 100 µM: ACHN renal | COLO 205 colon | SF-539 CNS | HCT-116 colon | SK-MEL-2 melanoma | UACC-62 melanoma | OVCAR-5 ovarian | TK-10 renal | NCI-H460 lung | SN12C renal | SNB-75 CNS | IGROV1 ovarian | NCI-H522 lung | A498 renal | HOP-62 NSCLC | OVCAR-4 ovarian | 786-0 renal | MALME-3M melanoma | OVCAR-8 ovarian | BT-549 breast | HCT-15 colon | HS 578T breast | SK-OV-3 ovarian | SNB-19 CNS | OVCAR-3 ovarian | UO-31 renal | NCI-H23 lung | UACC-257 melanoma | KM12 colon | RPMI-8226 leukemia | SR leukemia | SF-268 CNS | CCRF-CEM leukemia | MDA-MB-435 | DU-145 prostate | EKVX NSCLC | LOX IMVI melanoma | M14 melanoma | T-47D breast | HL-60(TB) leukemia | MCF7 breast | U251 CNS | HCC-2998 colon | MOLT-4 leukemia | CAKI-1 renal | A549 NSCLC | HOP-92 NSCLC | K-562 leukemia | SW-620 colon | MDA-MB-231 breast | HT29 colon | NCI-H226 lung | SK-MEL-5 melanoma | SF-295 CNS | NCI/ADR-RES ovarian | MDA-N | PC-3 prostate

Nc1cccc(OCc2nc(N)nc(N)c2-c2ccc(Cl)cc2)c1
> 100 µM: ACHN renal | RXF 393 renal | HCT-116 colon | SK-MEL-2 melanoma | UACC-62 melanoma | OVCAR-5 ovarian | TK-10 renal | NCI-H460 lung | SN12C renal | SNB-75 CNS | IGROV1 ovarian | NCI-H522 lung | A498 renal | HOP-62 NSCLC | OVCAR-4 ovarian | 786-0 renal | MALME-3M melanoma | OVCAR-8 ovarian | BT-549 breast | HCT-15 colon | HS 578T breast | SK-OV-3 ovarian | SNB-19 CNS | OVCAR-3 ovarian | UO-31 renal | SK-MEL-28 melanoma | NCI-H23 lung | UACC-257 melanoma | KM12 colon | RPMI-8226 leukemia | SR leukemia | SF-268 CNS | MDA-MB-435 | DU-145 prostate | EKVX NSCLC | LOX IMVI melanoma | M14 melanoma | T-47D breast | MCF7 breast | U251 CNS | MOLT-4 leukemia | CAKI-1 renal | A549 NSCLC | HOP-92 NSCLC | K-562 leukemia | SW-620 colon | MDA-MB-231 breast | HT29 colon | SK-MEL-5 melanoma | SF-295 CNS | NCI/ADR-RES ovarian | MDA-N | PC-3 prostate
29.2 µM: CCRF-CEM leukemia
44.1 µM: COLO 205 colon
77.3 µM: HL-60(TB) leukemia
79.5 µM: NCI-H226 lung

Cc1cc(=Nc2ccc3c(c2)c(N)cc(C)[n+]3C)nc(N)n1C
> 100 µM: ACHN renal | COLO 205 colon | SF-539 CNS | RXF 393 renal | HCT-116 colon | SK-MEL-2 melanoma | UACC-62 melanoma | OVCAR-5 ovarian | TK-10 renal | NCI-H460 lung | SN12C renal | SNB-75 CNS | IGROV1 ovarian | NCI-H522 lung | A498 renal | HOP-62 NSCLC | OVCAR-4 ovarian | 786-0 renal | MALME-3M melanoma | OVCAR-8 ovarian | BT-549 breast | HCT-15 colon | HS 578T breast | SK-OV-3 ovarian | SNB-19 CNS | OVCAR-3 ovarian | UO-31 renal | SK-MEL-28 melanoma | NCI-H23 lung | UACC-257 melanoma | KM12 colon | RPMI-8226 leukemia | SR leukemia | SF-268 CNS | CCRF-CEM leukemia | MDA-MB-435 | DU-145 prostate | EKVX NSCLC | LOX IMVI melanoma | M14 melanoma | T-47D breast | MCF7 breast | U251 CNS | MOLT-4 leukemia | CAKI-1 renal | A549 NSCLC | HOP-92 NSCLC | K-562 leukemia | SW-620 colon | MDA-MB-231 breast | HT29 colon | SK-MEL-5 melanoma | SF-295 CNS | NCI/ADR-RES ovarian | MDA-N | PC-3 prostate

Cc1[nH]c2ccccc2c1C=Nc1ccc(Oc2ccccc2)cc1
28.3 µM: IGROV1 ovarian
34.1 µM: SF-268 CNS
30.4 µM: DU-145 prostate | CAKI-1 renal
43.4 µM: OVCAR-8 ovarian
26.1 µM: SNB-75 CNS
31.4 µM: KM12 colon
32.3 µM: HL-60(TB) leukemia | A549 NSCLC
34.6 µM: OVCAR-4 ovarian | MALME-3M melanoma
33.1 µM: SNB-19 CNS
30.8 µM: ACHN renal
35.5 µM: BT-549 breast
30.3 µM: 786-0 renal | M14 melanoma
42.6 µM: SW-620 colon
24.4 µM: UO-31 renal
58.1 µM: K-562 leukemia
29.3 µM: U251 CNS
34.3 µM: SK-MEL-2 melanoma
32.2 µM: MDA-MB-231 breast
40 µM: NCI-H460 lung
31.7 µM: RXF 393 renal
35.4 µM: RPMI-8226 leukemia
31.9 µM: SN12C renal | MDA-N
31.3 µM: HCT-116 colon | HT29 colon
29.1 µM: SF-295 CNS
40.5 µM: T-47D breast
31.6 µM: NCI-H522 lung
27.6 µM: OVCAR-3 ovarian
39.7 µM: MCF7 breast
32.1 µM: NCI-H23 lung
30.2 µM: TK-10 renal
51 µM: SR leukemia
38.8 µM: NCI/ADR-RES ovarian
35 µM: HCT-15 colon
28.9 µM: CCRF-CEM leukemia | SK-MEL-5 melanoma
26.9 µM: PC-3 prostate
31.8 µM: UACC-257 melanoma | MDA-MB-435
27.4 µM: EKVX NSCLC
30.1 µM: COLO 205 colon
34.7 µM: SK-MEL-28 melanoma
37 µM: A498 renal
30 µM: OVCAR-5 ovarian
35.7 µM: MOLT-4 leukemia
52 µM: HS 578T breast
32.8 µM: LOX IMVI melanoma
33 µM: SF-539 CNS
31.2 µM: HOP-92 NSCLC
32 µM: UACC-62 melanoma | SK-OV-3 ovarian
